Several values for one entry are separate records, joined by “and”; a condition that tells them apart may be missing. Equal values may be shown once.
Columns and labels:
[1] = biological target: GluN1–1a D/D (Rattus norvegicus, UniProt P35439+Q62645); assay: Outside-out patch-clamp recordings, fast application; type: cell-based
[2] = biological target: GluN1–1a A/A (GluN1/2A/2A) (Rattus norvegicus, UniProt P35439+Q00959); assay: as above; type: cell-based
[3] = biological target: GluN1–1b A/A (GluN1/2A/2A) (Rattus norvegicus, UniProt P35439+Q00959); assay: as above; type: cell-based
[4] = biological target: GluN1–1a BC1/DC2 (Rattus norvegicus, UniProt P35439+Q00959+Q00960+Q62645, A876H/F846L/G856D/H848F/K857R/M851T/M860L/Q845K/R869K/V861L/V866F); assay: as above; type: cell-based
[5] = biological target: GluN1–1a DC1/DC2 (Rattus norvegicus, UniProt P35439+Q00959+Q62645, R869K/V866F); assay: as above; type: cell-based
[6] = biological target: GluN1–1b AC1/BC2 (Rattus norvegicus, UniProt P35439+Q00959+Q00960, A876H/F846L/G856D/H848F/K857R/M851T/M860L/Q845K/V861L); assay: as above; type: cell-based
[7] = biological target: GluN1–1a/2BC1/2DC2 (Rattus norvegicus, UniProt P35439+Q00959+Q00960+Q62645, A876H/F846L/G856D/H848F/K857R/M851T/M860L/Q845K/R869K/V861L/V866F); assay: Two-electrode voltage-clamp recordings, Xenopus oocytes; type: cell-based; details: isoform 1a
[8] = biological target: GluN1–1b AC1/AC2 (Rattus norvegicus, UniProt P35439+Q00959); assay: Outside-out patch-clamp recordings, fast application; type: cell-based
[9] = biological target: GluN1–1b B/B (Rattus norvegicus, UniProt P35439+Q00960); assay: as above; type: cell-based
[10] = biological target: GluN1–1b BC1/DC2 (Rattus norvegicus, UniProt P35439+Q00959+Q00960+Q62645, A876H/F846L/G856D/H848F/K857R/M851T/M860L/Q845K/R869K/V861L/V866F); assay: as above; type: cell-based
[11] = biological target: GluN1–1a AC1/AC2 (GluN1/2AC1/2AC2) (Rattus norvegicus, UniProt P35439+Q00959); assay: as above; type: cell-based
[12] = biological target: GluN1–1b D/D (Rattus norvegicus, UniProt P35439+Q62645); assay: as above; type: cell-based
[13] = biological target: GluN1–1b DC1/DC2 (Rattus norvegicus, UniProt P35439+Q00959+Q62645, R869K/V866F); assay: as above; type: cell-based
[14] = biological target: GluN1–1a AC1/BC2 (Rattus norvegicus, UniProt P35439+Q00959+Q00960, A876H/F846L/G856D/H848F/K857R/M851T/M860L/Q845K/V861L); assay: as above; type: cell-based
[15] = biological target: GluN1–1a BC1/BC2 (Rattus norvegicus, UniProt P35439+Q00959+Q00960, A876H/F846L/G856D/H848F/K857R/M851T/M860L/Q845K/V861L); assay: as above; type: cell-based
[16] = biological target: GluN1–1a/2D (Rattus norvegicus, UniProt P35439+Q62645); assay: Two-electrode voltage-clamp recordings, Xenopus oocytes; type: cell-based
[17] = biological target: GluN1–1a/2B (Rattus norvegicus, UniProt P35439+Q00960); assay: as above; type: cell-based; details: isoform 1a
[18] = biological target: GluN1–1a B/B (Rattus norvegicus, UniProt P35439+Q00960); assay: Outside-out patch-clamp recordings, fast application; type: cell-based
[19] = biological target: GluN1–1b BC1/BC2 (Rattus norvegicus, UniProt P35439+Q00959+Q00960, A876H/F846L/G856D/H848F/K857R/M851T/M860L/Q845K/V861L); assay: as above; type: cell-based
[20] = biological target: GluN1–1b/2B (Rattus norvegicus, UniProt P35439+Q00960); assay: Two-electrode voltage-clamp recordings, Xenopus oocytes; type: cell-based; details: isoform 1b
[21] = biological target: GluN1–1b/2BC1/2DC2 (Rattus norvegicus, UniProt P35439+Q00959+Q00960+Q62645, A876H/F846L/G856D/H848F/K857R/M851T/M860L/Q845K/R869K/V861L/V866F); assay: as above; type: cell-based; details: isoform 1b
[22] = system: NMDA receptors in cerebellar Golgi cells (thought to be mainly GluN1/2B/2D); details: single-channel recordings, outside-out patches; ref Brickley et al., 2003; cited from earlier work
[23] = 1 mM glutamate 3–5 ms, 100 μM glycine
[24] = deactivation, two-exponential fit
[25] = fitted percentage of the fast component
[26] = weighted deactivation time constant
[27] = deactivation, single-exponential fit

GluN1–1a D/D, sequence (Q62645 28-1323, other chains not shown): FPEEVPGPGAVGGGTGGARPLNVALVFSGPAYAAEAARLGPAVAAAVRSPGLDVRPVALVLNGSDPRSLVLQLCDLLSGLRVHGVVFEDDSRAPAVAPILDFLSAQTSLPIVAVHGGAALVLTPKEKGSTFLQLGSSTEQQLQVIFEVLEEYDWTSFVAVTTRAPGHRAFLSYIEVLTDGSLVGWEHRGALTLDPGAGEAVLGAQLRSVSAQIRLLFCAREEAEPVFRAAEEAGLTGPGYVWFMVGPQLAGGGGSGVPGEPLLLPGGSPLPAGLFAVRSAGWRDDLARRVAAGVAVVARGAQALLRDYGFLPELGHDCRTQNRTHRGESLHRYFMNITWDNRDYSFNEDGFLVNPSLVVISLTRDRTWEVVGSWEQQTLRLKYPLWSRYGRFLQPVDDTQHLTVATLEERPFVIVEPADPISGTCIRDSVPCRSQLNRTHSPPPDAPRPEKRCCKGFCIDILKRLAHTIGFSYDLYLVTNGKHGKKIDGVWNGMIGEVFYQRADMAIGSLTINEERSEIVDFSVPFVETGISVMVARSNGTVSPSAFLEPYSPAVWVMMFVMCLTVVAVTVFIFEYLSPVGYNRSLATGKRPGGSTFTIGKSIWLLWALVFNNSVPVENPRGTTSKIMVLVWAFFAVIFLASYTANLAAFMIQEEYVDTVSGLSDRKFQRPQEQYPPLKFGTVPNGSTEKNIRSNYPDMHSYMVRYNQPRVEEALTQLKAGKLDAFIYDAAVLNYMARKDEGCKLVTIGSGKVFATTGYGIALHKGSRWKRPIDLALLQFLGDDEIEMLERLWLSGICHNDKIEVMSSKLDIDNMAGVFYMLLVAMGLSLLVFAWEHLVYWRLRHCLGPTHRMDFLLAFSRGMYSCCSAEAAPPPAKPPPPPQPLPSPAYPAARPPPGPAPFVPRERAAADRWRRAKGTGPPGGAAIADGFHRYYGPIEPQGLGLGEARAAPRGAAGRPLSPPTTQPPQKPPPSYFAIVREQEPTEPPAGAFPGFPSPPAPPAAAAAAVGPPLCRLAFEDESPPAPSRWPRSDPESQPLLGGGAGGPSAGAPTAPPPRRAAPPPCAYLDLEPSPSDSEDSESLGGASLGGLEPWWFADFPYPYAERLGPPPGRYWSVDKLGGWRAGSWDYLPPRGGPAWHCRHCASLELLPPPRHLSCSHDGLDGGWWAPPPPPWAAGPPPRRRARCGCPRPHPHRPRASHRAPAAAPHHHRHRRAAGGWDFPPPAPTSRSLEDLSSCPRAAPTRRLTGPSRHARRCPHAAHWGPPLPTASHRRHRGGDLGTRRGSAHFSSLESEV
GluN1–1b D/D, sequence (Q62645 28-1323, other chains not shown): as above
GluN1–1a A/A (GluN1/2A/2A), sequence (Q00959 23-1464, other chains not shown): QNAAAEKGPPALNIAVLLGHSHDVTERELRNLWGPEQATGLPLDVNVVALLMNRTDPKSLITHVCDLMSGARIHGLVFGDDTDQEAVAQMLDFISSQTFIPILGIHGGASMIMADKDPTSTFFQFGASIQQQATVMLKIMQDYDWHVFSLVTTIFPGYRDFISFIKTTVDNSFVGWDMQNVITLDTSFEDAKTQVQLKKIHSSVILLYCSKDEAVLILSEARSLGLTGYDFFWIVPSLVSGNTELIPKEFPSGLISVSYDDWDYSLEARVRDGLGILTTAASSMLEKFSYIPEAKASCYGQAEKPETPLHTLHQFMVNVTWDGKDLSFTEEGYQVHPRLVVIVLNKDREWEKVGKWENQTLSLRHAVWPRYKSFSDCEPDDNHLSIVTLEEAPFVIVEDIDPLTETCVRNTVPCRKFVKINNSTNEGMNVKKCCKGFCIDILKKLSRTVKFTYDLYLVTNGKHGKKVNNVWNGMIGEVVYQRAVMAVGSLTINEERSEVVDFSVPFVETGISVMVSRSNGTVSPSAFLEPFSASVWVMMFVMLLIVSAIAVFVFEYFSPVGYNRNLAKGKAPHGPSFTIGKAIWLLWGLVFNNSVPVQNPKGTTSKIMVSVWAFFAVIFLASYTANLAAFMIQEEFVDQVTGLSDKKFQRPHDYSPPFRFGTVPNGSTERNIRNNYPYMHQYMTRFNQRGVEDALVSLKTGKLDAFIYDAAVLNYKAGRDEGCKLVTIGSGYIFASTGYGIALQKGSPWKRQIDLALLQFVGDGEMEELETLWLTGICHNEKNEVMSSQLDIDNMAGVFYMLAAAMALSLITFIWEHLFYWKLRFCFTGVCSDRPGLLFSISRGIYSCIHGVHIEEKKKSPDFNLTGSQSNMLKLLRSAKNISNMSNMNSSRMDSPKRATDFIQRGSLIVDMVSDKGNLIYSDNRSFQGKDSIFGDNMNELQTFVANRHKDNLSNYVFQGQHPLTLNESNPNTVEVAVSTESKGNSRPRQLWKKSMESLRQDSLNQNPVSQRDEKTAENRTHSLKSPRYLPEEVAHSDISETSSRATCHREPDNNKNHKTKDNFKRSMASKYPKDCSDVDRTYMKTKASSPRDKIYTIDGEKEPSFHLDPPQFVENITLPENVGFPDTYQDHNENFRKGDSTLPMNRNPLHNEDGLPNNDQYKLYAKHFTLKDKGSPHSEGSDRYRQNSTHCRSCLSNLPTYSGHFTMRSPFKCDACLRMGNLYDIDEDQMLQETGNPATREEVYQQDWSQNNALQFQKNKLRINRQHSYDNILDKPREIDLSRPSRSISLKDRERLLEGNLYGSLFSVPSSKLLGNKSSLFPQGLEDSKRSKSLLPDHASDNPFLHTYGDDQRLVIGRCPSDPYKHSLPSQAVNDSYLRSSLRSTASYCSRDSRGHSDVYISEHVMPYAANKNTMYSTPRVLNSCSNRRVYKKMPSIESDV
GluN1–1b A/A (GluN1/2A/2A), sequence (Q00959 23-1464, other chains not shown): as above
GluN1–1a/2D, sequence (Q62645 28-1323, other chains not shown): as the sequence (Q62645 28-1323, other chains not shown) above

## N[C@@H](CCC(=O)O)C(=O)O [glutamate]
[1]; [23]
  rise time (10–90%): 6.2 ± 0.7 ms
[1]; [24]
  τfast: 832 ± 146 ms
  τslow: 7436 ± 890 ms
[1]; [25]
  % fast: 24 ± 3%
[1]; [26]
  τw: 5714 ± 458 ^*^,# ms
[2]; [23]
  rise time (10–90%): 3.9 ± 0.3 ms
[2]; deactivation, single-exponential fit, 1 mM glutamate 3–5 ms, 100 μM glycine
  τfast: 87 ± 7 ms
[2]; [26]
  τw: 87 ± 7^#,$ ms
[3]; [23]
  rise time (10–90%): 4.8 ± 0.3 ms
[3]; [27]
  τfast: 56 ± 6 ms
[3]; [26]
  τw: 56 ± 6^#,$ ms
[4]; [23]
  rise time (10–90%): 10.9 ± 2.5 ms
[4]; [24]
  τfast: 516 ± 42 ms
  τslow: 3521 ± 446 ms
[4]; [25]
  % fast: 54 ± 6%
[4]; [26]
  τw: 1770 ± 120 ms and 1767 ± 117 ^*^,#,$ ms
[5]; [23]
  rise time (10–90%): 8.6 ± 4.8 ms
[5]; [24]
  τfast: 527 ± 225 ms
  τslow: 6912 ± 848 ms
[5]; [25]
  % fast: 17 ± 7%
[5]; [26]
  τw: 5700 ± 560 ms and 5700 ± 561 ^*^,# ms
[6]; [23]
  rise time (10–90%): 3.7 ± 0.5 ms
[6]; [24]
  τfast: 47 ± 4 ms
  τslow: 160 ± 25 ms
[6]; [25]
  % fast: 69 ± 12%
[6]; [26]
  τw: 74 ± 5 ^*^,#,$ ms
[7]; agonist concentration-response
  nH (Hill coefficient): 1.4
[8]; [23]
  rise time (10–90%): 6.3 ± 2.8 ms
[8]; [27]
  τfast: 53 ± 7 ms
[8]; [26]
  τw: 53 ± 7^#,$ ms
[9]; [23]
  rise time (10–90%): 10.3 ± 1.5 ms
[9]; [24]
  τfast: 81 ± 8 ms
  τslow: 208 ± 49 ms
[9]; [25]
  % fast: 58 ± 12%
[9]; [26]
  τw: 155 ± 19 ^*^,$ ms
[10]; [23]
  rise time (10–90%): 9.2 ± 1.3 ms
[10]; [24]
  τfast: 127 ± 31 ms
  τslow: 634 ± 132 ms
[10]; [25]
  % fast: 50 ± 15%
[10]; [26]
  τw: 290 ± 120 ms and 288 ± 22 ^*^,#,$ ms
[11]; [23]
  rise time (10–90%): 4.2 ± 0.9 ms
[11]; [27]
  τfast: 78 ± 13 ms
[11]; [26]
  τw: 78 ± 13 ^*^,#,$ ms
[12]; [23]
  rise time (10–90%): 3.5 ± 0.4 ms
[12]; [24]
  τfast: 245 ± 32 ms
  τslow: 1609 ± 148 ms
[12]; [25]
  % fast: 40 ± 7%
[12]; [26]
  τw: 992 ± 68 ^*^,# ms
[13]; [23]
  rise time (10–90%): 4.5 ± 0.7 ms
[13]; [24]
  τfast: 256 ± 92 ms
  τslow: 1399 ± 141 ms
[13]; [25]
  % fast: 14 ± 4%
[13]; [26]
  τw: 1230 ± 90 ms and 1230 ± 86 ^*^,# ms
[14]; [23]
  rise time (10–90%): 10.9 ± 6.2 ms
[14]; [24]
  τfast: 93 ± 27 ms
  τslow: 180 ± 62 ms
[14]; [25]
  % fast: 63 ± 19%
[14]; [26]
  τw: 140 ± 10 ^*^,#,$ ms
[15]; [23]
  rise time (10–90%): 15.1 ± 2.7 ms
[15]; [24]
  τfast: 205 ± 35 ms
  τslow: 1045 ± 129 ms
[15]; [25]
  % fast: 58 ± 8%
[15]; [26]
  τw: 530 ± 60 ms and 533 ± 58 ^*^,$ ms
[16]; GluN1 isoform 1a, glutamate with 100 μM glycine, glycine with 300 μM glutamate
  EC50: 270 ± 10 nM
[16]; agonist concentration-response, isoform 1a
  nH (Hill coefficient): 1.7
[17]; agonist concentration-response
  nH (Hill coefficient): 1.6
[18]; [23]
  rise time (10–90%): 14.9 ± 1.2 ms
[18]; [24]
  τfast: 240 ± 23 ms
  τslow: 1020 ± 72 ms
[18]; [25]
  % fast: 59 ± 5%
[18]; [26]
  τw: 548 ± 45 ^*^,$ ms
[19]; [23]
  rise time (10–90%): 8.3 ± 1.6 ms
[19]; [24]
  τfast: 101 ± 15 ms
  τslow: 360 ± 89 ms
[19]; [25]
  % fast: 84 ± 6%
[19]; [26]
  τw: 140 ± 10 ms and 138 ± 13 ^*^,$ ms

## CC(C(O)c1ccc(O)cc1)N1CCC(Cc2ccccc2)CC1 (centres unmarked) [ifenprodil]
[20]; inhibition
  nH (Hill coefficient): 1.8
[20]
  maximal inhibition: 88%
[7]; inhibition
  nH (Hill coefficient): 1.1
[7]
  maximal inhibition: ~ 65%
[21]; inhibition
  nH (Hill coefficient): 1.1
[21]
  maximal inhibition: 69%
[22]
  IC50: 129 nM
  maximal inhibition: 71.5%
[17]; inhibition
  nH (Hill coefficient): 1.1
[17]
  maximal inhibition: ~ 95%

— paper PMC6858497 (The Journal of physiology, 2019)
